# From patent US20260152691A1, “METHOD AND COMPOUNDS FOR TREATING OR PREVENTING AUTOIMMUNE DISORDERS OR IMMUNE RESPONSES MODULATED BY THE EXPRESSION OF IDO1” (The Trustees of Princeton University, priority 2019, published 2026)
# Columns and labels:
# ferric cytochrome c = ferric cytochrome c (Homo sapiens, UniProt P99999); experiment: Heme protein selectivity by stopped-flow UV-vis spectrometry, cytochrome c; type: biochemical; conditions: pseudo-first-order conditions
# Procedure: (§1) Since hydrogen sulfide and polysulfides are known to react with other heme proteins, the selectivity of 3 MI for IDO1 was examined by mixing the substituted indole compounds (such as 3 MI) with several other heme proteins and observing their reactions using stopped-flow UV-vis spectrometry.
# (§2) The substituted indole compounds had no effect on catalase even at 250 µM, whereas the substituted indole compounds did appear to reduce myoglobin and hemoglobin, producing their oxygen-bound forms. The substituted indole compound was also able to reduce ferric cytochrome c to its distinctive ferrous form. The second-order rate constants of these reactions were determined under pseudo-first-order conditions giving 6.6×10^3, 1.6×10^4, and 2.7×10^5 M^−1 s^−1 for myoglobin, hemoglobin, and cytochrome c, respectively. […] Unlike myoglobin and hemoglobin, the oxy-form of IDO1 was not observed due to the relatively slow reduction of IDO1 by 3 MI.
# ferric-superoxo IDO1 = ferric-superoxo IDO1 (Homo sapiens, UniProt P14902); experiment: Double-mixing stopped-flow spectrometry, reaction with ferric-superoxo IDO1; type: biochemical; conditions: 3 MI kept reduced with 5 mM glutathione; estimated, double exponential fit
# Chain of ferric-superoxo IDO1 (P14902 whole entry): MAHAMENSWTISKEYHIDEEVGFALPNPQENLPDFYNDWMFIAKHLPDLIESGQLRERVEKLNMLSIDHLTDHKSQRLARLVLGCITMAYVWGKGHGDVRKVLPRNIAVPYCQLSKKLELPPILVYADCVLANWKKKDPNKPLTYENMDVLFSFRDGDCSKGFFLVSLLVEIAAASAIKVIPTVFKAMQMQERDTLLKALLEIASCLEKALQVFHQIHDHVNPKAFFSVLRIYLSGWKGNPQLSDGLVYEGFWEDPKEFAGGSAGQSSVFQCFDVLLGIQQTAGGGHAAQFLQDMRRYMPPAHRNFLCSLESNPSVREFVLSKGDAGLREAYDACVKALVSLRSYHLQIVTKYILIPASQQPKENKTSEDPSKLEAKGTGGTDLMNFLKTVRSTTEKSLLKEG
# Procedure: The nature of substituted indole compound-inhibition at high concentrations (>5 μM) was examined further with ferric-superoxo IDO1, the active tryptophan-oxidizing species. Ferric-superoxo IDO1 was generated using double-mixing stopped-flow spectrometry by mixing IDO1 prereduced with 2 mM sodium dithionite into aerobic buffer for 0.5 s. This ferric superoxo species was then mixed in the second push with 3 MI that had been maintained in the reduced state using 5 mM glutathione. 3 MI readily reacted with ferric-superoxo IDO1 to form ferric IDO1 without any observable intermediates. This was shown by a fast shift from the ferric-superoxo complex (Amax 415 nm) to the ferric (Amax 404 nm) that was completed nearly within the mixing time of the instrument (<10 ms) even at the lowest concentration of 3 MI useful for pseudo-first-order reaction conditions (where 3 MI must be at a large excess over IDO1). Following this fast conversion to ferric IDO1, there was a slower shift to the ferric 3 MI-bound complex as indicated by the Soret shifting to 424 nm (as in FIG. 4). To account for both reactions, these traces were fit using a double exponential expression.
# myoglobin = molecular target: T1, myoglobin (Homo sapiens, UniProt P02144); experiment: Heme protein selectivity by stopped-flow UV-vis spectrometry, myoglobin; type: biochemical; conditions: pseudo-first-order conditions
# T1 sequence (P02144 1-154): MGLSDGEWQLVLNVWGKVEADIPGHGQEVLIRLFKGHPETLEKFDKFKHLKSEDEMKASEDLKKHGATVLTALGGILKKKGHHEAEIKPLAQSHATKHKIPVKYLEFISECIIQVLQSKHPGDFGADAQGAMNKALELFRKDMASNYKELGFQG
# Procedure: as §1, §2
# ferric IDO1 = ferric IDO1 (Homo sapiens, UniProt P14902); experiment: Stopped-flow UV-vis spectrometry of binding to ferric IDO1
# Chain of ferric IDO1 (P14902 whole entry): as the sequence (P14902 whole entry) above
# Procedure: FIG. 3 is a graph showing the second-order rate constant of 3 MI binding to ferric IDO1 determined by stopped-flow spectrometry.
# FIG. 4 is a graph showing stopped-flow UV-vis spectrometry of 3 MI (30 μM) binding to IDO1 (1.4 μM) over 0.2 s.
# 3-Mercaptoindole (3 MI) was seen to bind to IDO1 with a fast on-rate of 1.7×10^6 M^−1 s^−1 under pseudo-first-order conditions (See FIG. 3), producing a UV-vis spectrum (see FIG. 4) that has a Soret at 424 nm, a lower peak at 321 nm, and broad q-bands at 537 nm and a shoulder at about 575 nm. […] Note that although 3 MI is referred to here, similar results can be seen with other substituted indole compounds disclosed herein.
# hemoglobin = hemoglobin (Homo sapiens, UniProt P68871+P69905); experiment: Heme protein selectivity by stopped-flow UV-vis spectrometry, hemoglobin; type: biochemical; conditions: pseudo-first-order conditions
# Chain of hemoglobin (P69905 2-142 limits assumed): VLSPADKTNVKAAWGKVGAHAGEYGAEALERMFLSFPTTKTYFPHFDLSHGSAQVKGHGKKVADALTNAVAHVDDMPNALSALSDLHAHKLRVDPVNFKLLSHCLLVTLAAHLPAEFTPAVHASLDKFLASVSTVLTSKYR
# Chain of hemoglobin (P68871 2-147 limits assumed): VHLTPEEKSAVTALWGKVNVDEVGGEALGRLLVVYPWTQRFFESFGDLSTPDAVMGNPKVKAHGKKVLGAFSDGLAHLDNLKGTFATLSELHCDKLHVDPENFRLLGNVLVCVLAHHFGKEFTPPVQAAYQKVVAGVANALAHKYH
# Procedure: as §1, §2
# IDO1 = IDO1 (Homo sapiens, UniProt P14902); experiment: IDO1 activity assay, N-formylkynurenine absorbance at 321 nm; type: biochemical
# Chain of IDO1 (P14902 whole entry): as the sequence (P14902 whole entry) above
# Procedure: FIG. 2 is a graph showing the activity of IDO1 (500 nM) (204) with L-tryptophan (200 μM) as substrate glutathione alone (203), and also when activated by 3 MI (500 nM) with glutathione (5 mM) (201), and by 3 MI (500 nM) without glutathione (202).
# FIG. 6 reflects a system involving IDO1 (50 nM), 0.1 mM L-tryptophan, and 5 mM glutathione in 100 mM sodium phosphate, pH 7.0 with <1 μM 6-chloro-5-fluoro-1H-indole-3-thiol.
# The activity of the compounds was determined as follows. UV-vis spectra were recorded using a Hewlett-Packer 8453 diode array spectrophotometer. Activity assays were done at room temperature using 100 mM sodium phosphate, pH 7.0, with 500 nM IDO1 (ε404nm=172 mM^−1 cm^−1) and 50 μM L-tryptophan. These were initiated by addition of IDO1, and activity was monitored at 321 nm where product N-formylkynurenine absorbs (ε321nm=3750 M^−1 cm^−1).
# The substituted indole compound was prepared daily in a 100 mM stock solution in dimethyl sulfoxide (DMSO), and this was serially diluted to maintain a consistent final concentration of 1% (v/v) DMSO in each assay. To maintain activity, 5 mM reduced glutathione was added to some of these from a 0.5 M stock solution. The substituted indole compound was generally tested from 100 nM to 10 μM. The ability of each compound to serve as a reducing substrate for IDO1 was fit using a Michaelis-Menten equation. […] Above 5 μM 3 MI, there was a steep inhibitory effect.
# Chain of ferric cytochrome c (P99999 whole entry): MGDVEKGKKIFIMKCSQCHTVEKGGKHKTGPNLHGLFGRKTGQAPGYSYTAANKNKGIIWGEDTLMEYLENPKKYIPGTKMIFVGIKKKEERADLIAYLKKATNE
structure (smiles),measurement,setting,value
"Sc1c[nH]c2ccccc12 [3 MI, 3-Mercaptoindole]",second-order rate constant of reduction of cytochrome c,ferric cytochrome c,270000 M⁻¹ s⁻¹
same,second-order rate constant of initial reaction with ferric-superoxo IDO1,ferric-superoxo IDO1,> 10^7 M^−1 s^−1
same,second-order rate constant of reduction of myoglobin,myoglobin,6600 M⁻¹ s⁻¹
same,Kd of binding to IDO1,ferric IDO1; complete conversion to bound IDO1 at micromolar concentrations of 3 MI,submicromolar
same,second-order rate constant of reduction of hemoglobin,hemoglobin,16000 M⁻¹ s⁻¹
same,concentration above which there was a steep inhibitory effect,IDO1,Above 5 μM
same,Km,"IDO1; 500 nM IDO1, 50 μM L-tryptophan, 100 mM sodium phosphate pH 7.0, room temperature, Michaelis-Menten fit, read-out: Km of activation",2.2 ± 0.7 µM
same,IDO1 activity with reduced glutathione added,"IDO1; 5 mM reduced glutathione (FIG. 2, 201)",sustained 3 MI-induced IDO1 activity
same,time after which the initial burst of IDO1 activity leveled off,"IDO1; 3 MI without glutathione (FIG. 2, 202)",500 s
Sc1c[nH]c2ccccc12 [3-Mercaptoindole (3 MI)],on-rate (second-order rate constant) of binding to IDO1,"ferric IDO1; pseudo-first-order conditions, stopped-flow",1.7e+06 M⁻¹ s⁻¹
Fc1cc2c(S)c[nH]c2cc1Cl [6-chloro-5-fluoro-1H-indole-3-thiol],"IDO1 activity, N-formylkynurenine absorbance at 321 nm over time (FIG. 6)","IDO1; IDO1 50 nM, 0.1 mM L-tryptophan, 5 mM glutathione, 100 mM sodium phosphate pH 7.0, <1 μM compound, background subtracted",increase in absorbance
